How the values were obtained:
[1] = PO JVC rat terminal PK study at 20 mg/kg (tissue distribution); assay type: in vivo; conditions: rat, 20 mg/kg PO; for Brain to Blood Ratio (corrected): corrected for 15 μL of blood per gram of brain tissue
Procedure: Compound 3 was orally dosed at 20 mg/kg to a group of nine, jugular vein cannulated, individually housed male Sprague Dawley rats that were fasted overnight and fed 4 h post-dose to assess its tissue distribution profile. Dosing was performed with 5 mL/kg dosing volumes with 5% DMSO, 95% water used as a dosing vehicle. Terminal blood samples (>230 μL) were taken from groups of 3 animals at each of 3 time-points post dose (1 h, 2 h, and 4 h) by cardiac puncture under CO2 into heparinised Eppendorf tubes (containing 5 μL heparin) on ice containing an equal quantity of water. Two 100 μL aliquots were then placed in duplicate 96 well plates on dry ice. Immediately after blood sampling, brain and eye pair samples were excised, weighed, rinsed, blotted, and snap frozen in liquid N2. Samples were stored in the freezer at −20° C. until bioanalysis.
Tissue samples were weighed and a volume of water 3 times the mass added to samples before homogenization. In the case of eyeballs the lens could not be homogenized, but all other tissues homogenized. The resulting data (tissue distribution parameters) are shown below in Table 2.

[2] = IV JVC rat PK study at 3 mg/kg; assay type: in vivo; conditions: male Sprague Dawley rats, 3 mg/kg IV
Procedure: Compound 3 was intravenously dosed at 3 mg/kg into a group of 3 individually housed, normally fed male Sprague Dawley rats that had been fitted with jugular vein catheters (JVCs). Dosing was performed with 2 mL/kg dosing volumes with 5% DMSO 95% water used as a dosing vehicle. Serial blood samples (150 μL) were taken from each animal at each time point post dose (0.08 h, 0.25 h, 0.5 h, 1 h, 2 h, 4 h, 8 h, and 24 h) into heparinised Eppendorf tubes (containing 5 μL heparin) on ice containing an equal quantity of water. Two 100 μL aliquots were then placed in duplicate 96 well plates on dry ice. Samples were stored in the freezer at −20° C. until bioanalysis.
Samples were defrosted and acetonitrile (containing internal standard) was used to precipitate the proteins. All the samples were mixed, centrifuged and the supernatants analysed by LC-MS-MS according to the following procedures: • 1. 20 μL plasma was transferred to a v-bottom 96-well plate. • 2. 80 μL acetonitrile (ACN) containing IS was added to each well. • 3. The plate was sealed and gently mixed for approximately 30 s. • 4. Plates were centrifuged for 10 min at 3500 rpm. • 5. 50 μL supernatant was transferred to a fresh v-bottom 96-well plate containing 100 μL MilliQ water.
Plates were thermo-sealed and stored at 4° C. until analysis. The resulting PK parameters are shown below in Table 1.

2-(5Z,8Z,11Z,14Z)-icosa-5,8,11,14-tetraenamidoethyl (trimethylammonio) ethylphosphate [Compound 3]
Brain to Blood Ratio (corrected) ([1]; 1 h): 0.25 | Blood ([1]; 1 h post dose): 108.4 ng/mL | Brain ([1]; 1 h post dose): 28.3 ng/g | Eye ([1]; 1 h post dose): 1035.4 ng/g | Brain to Blood Ratio (corrected) ([1]; 2 h): 1.69 | Blood ([1]; 2 h post dose): 16.7 ng/mL | Brain ([1]; 2 h post dose): 28.5 ng/g | Eye ([1]; 2 h post dose): 105.0 ng/g | Brain to Blood Ratio (corrected) ([1]; 4 h): 2.69 | Blood ([1]; 4 h post dose): 12.8 ng/mL | Brain ([1]; 4 h post dose): 34.6 ng/g | Eye ([1]; 4 h post dose): 104.4 ng/g | AUC0-inf [2]: 2561.0 ng·h/mL | AUC0-t [2]: 2462.2 ng·h/mL | CI [2]: 31 mL/min/kg | Vdss [2]: 6.3 L/kg | t1/2 [2]: 7.4 h
